Measured values reported in article PMC3344862, “Structural and Mutational Studies on Substrate Specificity and Catalysis of Salmonella typhimurium D-Cysteine Desulfhydrase” (PLoS ONE, 2012).

What was measured:
StDCyD [1] = biological target: T1, StDCyD (Salmonella enterica, UniProt Q8ZNT7); experiment: X-ray crystallography, crystal soak; UV-visible spectra; format: binding; conditions: covalent; external aldimine with PLP; 10 mM, about 2 min soak
T1 construct: gene dcyD; 36 kDa, dimer in solution; PLP on Lys51
T1 sequence (Q8ZNT7 1-328): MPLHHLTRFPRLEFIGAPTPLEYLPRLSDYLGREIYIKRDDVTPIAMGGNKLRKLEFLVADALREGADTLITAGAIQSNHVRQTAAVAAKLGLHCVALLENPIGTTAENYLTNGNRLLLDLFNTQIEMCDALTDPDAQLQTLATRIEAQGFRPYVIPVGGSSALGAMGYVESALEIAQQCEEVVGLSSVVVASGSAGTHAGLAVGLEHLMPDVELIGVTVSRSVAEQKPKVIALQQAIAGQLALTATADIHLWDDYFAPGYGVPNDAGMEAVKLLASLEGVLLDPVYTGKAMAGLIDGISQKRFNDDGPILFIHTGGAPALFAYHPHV

StDCyD [2] = biological target: T1, StDCyD; experiment: X-ray crystallography, co-crystallization; format: binding
StDCyD [3] = biological target: T1, StDCyD; experiment: X-ray crystallography, co-crystallization with DCS or LCS; format: binding; conditions: active site, not covalently linked to Lys51; formed from PLP by DCS (4D9B) or LCS (4D9C)
StDCyD [4] = biological target: T1, StDCyD; experiment: X-ray crystallography; absorbance maximum […] nm; format: binding; conditions: covalent; Schiff base with Lys51
StDCyD [5] = biological target: T1, StDCyD; experiment: thermal melting; format: binding; conditions: 10 mM pyruvate; Tm without and with ligand; data not shown
StDCyD [6] = biological target: T1, StDCyD; experiment: X-ray crystallography, crystals soaked with D-Cys or βCDA; format: binding; conditions: second site 4.0-6.0 Å from the active site (Arg222, Ser221); formed from D-Cys (4D8W) or βCDA (4D92)
[7] = biological target: the molecule itself; experiment: SEC; analytical gel filtration of the purified protein

## N[C@H]1CONC1=O [LCS]
StDCyD [1]
  X-ray crystallography, crystal soak; UV-visible spectra: Electron density observed at the active site was consistent with external aldimines of DCS or LCS

## NC1(C(=O)O)CC1 [ACC]
StDCyD [2]; covalent, external aldimine with PLP, not a substrate
  X-ray crystallography, co-crystallization: StDCyD cocrystallized with ACC (PDB code: 4D96) revealed that the ligand binds as an external aldimine

## N[C@@H](CO)C(=O)O [L-Ser]
StDCyD [2]; active site, non-covalent, internal aldimine intact, not a substrate
  X-ray crystallography, co-crystallization: Structures of StDCyD-D-Ser (PDB code: 4D97) and StDCyD-L-Ser (PDB code: 4D99) complexes

## N[C@@H]1CONC1=O [DCS]
StDCyD [1]
  X-ray crystallography, crystal soak; UV-visible spectra: Electron density observed at the active site was consistent with external aldimines of DCS or LCS

## Cc1ncc(COP(=O)(O)O)c(CN)c1O [PMP]
StDCyD [3]
  X-ray crystallography, co-crystallization with DCS or LCS: PMP is not covalently linked to ε-amino group of Lys51

## N[C@H](CO)C(=O)O [D-Ser]
StDCyD [2]; active site, non-covalent, internal aldimine intact, poor substrate
  X-ray crystallography, co-crystallization: Structures of StDCyD-D-Ser (PDB code: 4D97) and StDCyD-L-Ser (PDB code: 4D99) complexes

## Cc1ncc(COP(=O)(O)O)c(C=O)c1O [PLP]
StDCyD [4]
  X-ray crystallography; absorbance maximum 417 nm: PLP is bound by a Schiff base linkage to Lys51

## CC(=O)C(=O)O [pyruvate]
StDCyD [5]
  Tm with ligand: 80 to 85 °C
StDCyD [6]
  X-ray crystallography, crystals soaked with D-Cys or βCDA: The modeled pyruvate is held by hydrogen bonding with Arg222 and Ser221

B1: Salmonella typhimurium D-cysteine desulfhydrase (enzyme, UniProt Q8ZNT7 1-328, looked up)
chain: MPLHHLTRFPRLEFIGAPTPLEYLPRLSDYLGREIYIKRDDVTPIAMGGNKLRKLEFLVADALREGADTLITAGAIQSNHVRQTAAVAAKLGLHCVALLENPIGTTAENYLTNGNRLLLDLFNTQIEMCDALTDPDAQLQTLATRIEAQGFRPYVIPVGGSSALGAMGYVESALEIAQQCEEVVGLSSVVVASGSAGTHAGLAVGLEHLMPDVELIGVTVSRSVAEQKPKVIALQQAIAGQLALTATADIHLWDDYFAPGYGVPNDAGMEAVKLLASLEGVLLDPVYTGKAMAGLIDGISQKRFNDDGPILFIHTGGAPALFAYHPHV
modifications: PLP bound by a Schiff base linkage to Lys51
notes: residues 1-328; Cloned in pRSET C; no cleavage of the tag is described; Small domain residues 48-161, large domain residues 1-47 and 162-328; also called StDCyD; DCyD; source: E. coli BL21 (DE3) Rosetta, purified (Ni-NTA, size exclusion chromatography)
[7]
  stoichiometry N: 2
